Experimental findings from patent US8158559B2, “Herbicidal combination comprising dimethoxytriazinyl-substituted difluoromethanesulfonylanilides” (Bayer Cropscience AG, priority 2008, dated 2012) are described below.

Read-outs that look alike come from different tables or passages of the source.

Holding throughout (test): Post-emergence action against weeds, greenhouse pot test, visual scoring
Common to all, as to assay type: in vivo

One assay concerns Avena fatua (AVEFA). As to conditions: 504 h, read-out: % activity found. The method, then:
(§1) Seeds or rhizome pieces of mono- and dicotyledonous harmful and useful plants were placed in peat pots (diameter 4 cm) filled with sandy loam and then covered with soil. The pots were kept in a greenhouse under optimum conditions. In addition, harmful plants encountered in paddy rice cultivation were cultivated in pots with a water level 2 cm above the soil surface.
(§2) About three weeks after the start of the cultivation, the test plants were treated at the 2- to 3-leaf stage. The herbicides, formulated as powder or liquid concentrates, were, either alone or in the combinations according to the invention, sprayed in various dosages on to the green parts of the plants using an application rate of 600 l of water/ha (converted). For further cultivation of the plants, the pots were then again kept under optimum conditions in a greenhouse.
(§3) The visual scoring of the herbicidal effects was carried out in intervals up to 21 days after the treatment. Scoring was carried out in percent in comparison to the untreated control plants. 0%=no herbicidal activity, 100%=complete herbicidal activity=complete kill.
(§4) The percentages from the treatments with the herbicides alone (=individual application) and with the combinations according to the invention (=mixtures) were employed to calculate interactions using the method of Colby. When the observed efficacies of the mixtures exceed the formal sum of the values of the tests with individual applications, they also exceed the expected value according to Colby, which is calculated using the formula below (cf. S. R. Colby; in Weeds 15 (1967) pp. 20 to 22): E=A+B−(A×B/100)
(§5) Here: • A, B=activity of components A and B in percent at a dosage of a and b g of ai/ha (=gramm of active substance per hectare), respectively. • E=expected value in % at a dosage of a+b g of ai/ha. Results
(§6) The combinations according to the invention of herbicides from group (A) with herbicides from group (B) were tested on a broad spectrum of important harmful plants (weed grasses, broad-leaved weeds/Cyperaceae) and useful plants: Triticum aestivum (TRZAS), Stellaria media (STEME), Lolium multiflorum (LOLMU), Veronica persica (VERPE), Alopecurus myosuroides (ALOMY), Matricaria inodora (MATIN), Brassica napus (BRSNW), Viola tricolor (VIOTR), Avena fatua (AVEFA), Amaranthus retroflexus (AMARE), Zea mays (ZEAMX), Pharbitis purpurea (PHBPU), Setaria viridis (SETVI), Fallopia (ex Polygonum) convolvulus (POLCO), Echinochloa crus-galli (ECHCG), Abuthilon theophrasti (ABUTH), Cyperus esculentus (CYPES), Oryza sativa (ORYSA).
(§7) Of particular interest are the results shown in the tables (Tab.) below, where the following key is used: • (1) EPPO code (former Bayer code) for the treated plant (see above) • (2) Time of scoring: DAT (days after treatment) • (3) Component A tested (identifying number) • (4) Component B tested (identifying number) • (5) Dosage component A [g of ai/ha] • (6) Dosage component B [g of ai/ha] • (7) % activity found • (8) E value (calculated according to Colby; see above) • (9) Comments: “SYNERGY”=synergistic interaction (E value<% activity found); “SAFENING”=safener action on useful plant (E value>% activity found)

Assay [1] has as its system Cyperus esculentus (CYPES). As to conditions: 504 h, read-out: % activity found. How it is done:
as §1, §2, §3, §4, §5, §6, §7

Assay [2] deals with Lolium multiflorum (LOLMU). As to conditions: read-out: % activity found; for inhibition at 4 g/ha: dosage 4 g of ai/ha. The method, then: as §1, §2, §3, §4, §5, §6, §7
The test system of assay [3] is Matricaria inodora (MATIN). To be noted: Tripleurospermum inodorum, 504 h, read-out: % activity found. How it is done: as §1, §2, §3, §4, §5, §6, §7
In another assay the test system is Oryza sativa (ORYSA). To be noted: read-out: % activity found; for inhibition at 4 g/ha: dosage 4 g of ai/ha; for inhibition at 12 g/ha: dosage 12 g of ai/ha. The method, then:
as §1, §2, §3, §4, §5, §6, §7

The subject of assay [4] is Triticum aestivum (TRZAS). As to conditions: read-out: % activity found; for inhibition at 12 g/ha: dosage 12 g of ai/ha. How it is done: as §1, §2, §3, §4, §5, §6, §7
The test system of the next assay is Viola tricolor (VIOTR). To be noted: 240 h, read-out: % activity found. How it is done:
as §1, §2, §3, §4, §5, §6, §7

A further assay deals with Zea mays (ZEAMX). To be noted: read-out: % activity found; for inhibition at 4 g/ha: dosage 4 g of ai/ha. How it is done: as §1, §2, §3, §4, §5, §6, §7
Setting [5] is: 240 h, 10 DAT, dosage 12 g of ai/ha.
Where [6] appears, read: 504 h, 21 DAT, dosage 12 g of ai/ha.

On to `COc1nc(OC)nc(C(=O)c2cccc(F)c2N(C)S(=O)(=O)C(F)F)n1` [A-1], for which the inhibition at 4 g/ha in the assay with Avena fatua (AVEFA) (21 DAT, dosage 4 g of ai/ha) turned out to be 10%; in assay [1] (21 DAT, dosage 4 g of ai/ha) it was 80%; in assay [2] (240 h, 10 DAT) it was 0%; in assay [2] (504 h, 21 DAT) it was 0%; in assay [3] (21 DAT, dosage 4 g of ai/ha), 50%; with Oryza sativa (ORYSA) (240 h, 10 DAT) it was 10%. In addition, the inhibition at 4 g/ha in the assay on Oryza sativa (ORYSA) (504 h, 21 DAT) was determined as 0%; in assay [4] (240 h, 10 DAT, dosage 4 g of ai/ha), 0%; in the assay with Viola tricolor (VIOTR) (10 DAT, dosage 4 g of ai/ha), 20%; in the assay on Zea mays (ZEAMX) (240 h, 10 DAT) it was 0%; in the assay on Zea mays (ZEAMX) (504 h, 21 DAT) it was 0%. Also, the inhibition at 12 g/ha was found to be 30% in the assay with Avena fatua (AVEFA) (21 DAT, dosage 12 g of ai/ha); 10% in assay [2] (setting [5]); 10% in assay [2] (setting [6]); 10% in the assay on Oryza sativa (ORYSA) (240 h, 10 DAT); 10% in the assay on Oryza sativa (ORYSA) (504 h, 21 DAT); 0% in assay [4] (240 h, 10 DAT). Further, the inhibition at 12 g/ha worked out at 0% in assay [4] (504 h, 21 DAT); 20% in the assay on Viola tricolor (VIOTR) (10 DAT, dosage 12 g of ai/ha); 0% in the assay on Zea mays (ZEAMX) (setting [5]); 0% with Zea mays (ZEAMX) (setting [6]).
Regarding `COc1cc(OC)nc(Oc2cccc(Oc3nc(OC)cc(OC)n3)c2C(=O)O)n1` [B2-1, sodium 2,6-bis[(4,6-dimethoxy-2-pyrimidinyl)oxy]benzoate, reference compound], the inhibition at 12 g/ha worked out at 40% in assay [2] (240 h), 20% in assay [2] (504 h), 40% in the assay with Zea mays (ZEAMX) (240 h) and 0% in the assay with Zea mays (ZEAMX) (504 h). In addition, the inhibition at 36 g/ha in assay [2] (504 h) was 70%; in the assay on Oryza sativa (ORYSA) (504 h), 70%; with Zea mays (ZEAMX) (240 h) it was 40%; in the assay on Zea mays (ZEAMX) (504 h), 0%.
Turning to `CCOC(=O)COc1ncccc1Oc1cc(-n2c(=O)cc(C(F)(F)F)n(C)c2=O)c(F)cc1Cl` [B4-6, ethyl [[3-[2-chloro-5-[3,6-dihydro-3-methyl-2,6-dioxo-4-(trifluoromethyl)-1(2H)-pyrimidinyl]-4-fluorophenoxy]-2-pyridinyl]oxy]acetate, reference compound], the inhibition at 3 g/ha in the assay with Avena fatua (AVEFA) came to 0%; with Oryza sativa (ORYSA) (240 h) it was 40%; in assay [4] (504 h) it was 30%; in the assay with Viola tricolor (VIOTR), 10%; in the assay with Zea mays (ZEAMX) (240 h), 40%; with Zea mays (ZEAMX) (504 h), 30%. The inhibition at 9 g/ha in assay [1] came to 20%; in assay [3], 80%; with Oryza sativa (ORYSA) (240 h), 40%; in assay [4] (240 h), 50%; in the assay with Viola tricolor (VIOTR) it was 85%.
